Measured values taken from article PMC6910946, “Multiple roles of Bet v 1 ligands in allergen stabilization and modulation of endosomal protease activity” (Allergy, 2019).

What was measured:
Bet_v_1 = target: T1, Bet_v_1 (Betula pendula, UniProt P15494); assay: NMR spectroscopy (1H-15N HSQC) binding confirmation
T1 construct: made in house
T1 sequence (P15494 1-160): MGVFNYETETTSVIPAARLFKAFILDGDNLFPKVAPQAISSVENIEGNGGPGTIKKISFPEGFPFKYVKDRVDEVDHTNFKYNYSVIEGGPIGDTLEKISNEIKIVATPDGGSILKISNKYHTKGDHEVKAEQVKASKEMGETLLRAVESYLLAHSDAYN
Excerpt: Surface acoustic wave (SAW) technology and NMR spectroscopy were used to observe the interaction of Bet_v_1 with the selected compounds, including determination of the dissociation constant (K d). The influence of ligand binding on the secondary structure elements and the thermal stability of Bet_v_1 was monitored using circular dichroism (CD, JASCO J‐815 spectropolarimeter, Jasco) and Fourier transform infrared (FTIR) spectroscopy (Tensor II FTIR system, Bruker Optics Inc). A detailed description of these methods is available (Appendix [Link], [Link]).
To validate the interactions determined by SAW, we used NMR spectroscopy to test the specific binding of PPE1, LTA, LPS, and Kdo2 to Bet_v_1 (Table 1, Figure S2). […] The commercially available PPA1 was used as a substitute for PPE1 to identify the phytoprostane binding site(s).
The NMR data were acquired with either a 600 or 800 MHz Agilent DD2 spectrometer with a cryogenically cooled probe using the pulse sequence gNhsqc. Bet v 1 assignments were taken from.^2 The experiments were performed under the following conditions: LTA: 45 µM Bet v 1 and 300 µM LTA in PBS, 10% ^2H2O, 60 µM DSS; PPE1: 25 µM Bet v 1 and 2 µM PPE1 in PBS, 5% ^2H-(d6) DMSO, 10% ^2H2O, 60 µM DSS; PPA1: 100 µM Bet v 1 and 302 µM PPA1 (Cayman Chemical, MI, USA) in PBS, 8.7% ^2H-(d6) DMSO, 10% ^2H2O, 60 µM DSS; LPS: 100 µM Bet v 1 and 400 µM LPS in PBS pH 7.4, 10% ^2H2O, 60 µM DSS. Kdo2: 100 µM Bet v 1 and 422 µM Kdo2 in PBS pH 7.0, 10% ^2H2O, 8.6% ^2H-(d6) DMSO, 60 µM DSS.

cathepsin S = target: T2, cathepsin S (Homo sapiens, UniProt P25774); assay: Enzymatic activity assay, fluorogenic substrate Z-VVR-AMC; format: biochemical
T2 construct: made in house
Experimental: (§1) To evaluate the influence of Bet_v_1 ligands on cathepsin S and legumain activities, 10 nmol/L of protease was incubated with 100 µmol/L of ligand (unless otherwise stated) and 50 µmol/L of fluorogenic substrate in digestion buffer (0.1 mol/L sodium acetate pH 5.0, 0.1 mol/L sodium chloride, 5 mmol/L EDTA, and 2 mmol/L DTT), as described in the Appendix [Link], [Link]. The effect of birch pollen extract (BPE) (20‐200 µg/mL) on the cathepsin S and legumain activities was assessed in parallel. The inhibitory effect of PPE1 was assessed by replacing DTT with 0.5 mmol/L TCEP. Activities of recombinant rat cathepsin B (provided by Dr Lukas Mach) and papain (Merck) at 10 nmol/L were assayed using Z‐FR‐AMC (Bachem) as a fluorogenic substrate.
(§2) For the detection of cathepsin or legumain activities in the microsomal fraction, 8 µg of microsomal extract was incubated with 50 µM fluorogenic substrate with or without inhibitor in assay buffer (100 mM citrate pH 4.8 and 2 mM DTT). The enzymatic reactions were carried out in a 50 µL reaction volume in a 96-half-well black flat bottom assay plate (Corning Inc., Corning, NY, USA) at 37°C. The fluorescence signal was recorded using a Tecan Infinite-200 plate reader (Tecan, Männedorf, Switzerland) at an excitation wavelength of 380 nm and emission wavelength of 460 nm for 15 min of continuous measurement with a 30-s interval reading. The fluorogenic substrates used for cathepsin S and legumain were Z-VVR-AMC and Z-AAN-AMC (Bachem, Bubendorf, Switzerland), respectively. The inhibitors used for cathepsin S and legumain were Z-FL-COCHO (Sigma-Aldrich, CA, USA) and Ac-YVAD-CMK (Bachem), respectively^11.

legumain = target: T3, legumain (Homo sapiens, UniProt Q99538); assay: Enzymatic activity assay, fluorogenic substrate Z-AAN-AMC; format: biochemical; conditions: PPE1 5 µmol/L (Figure 4D)
T3 construct: made in house
T3 sequence (Q99538 18-433): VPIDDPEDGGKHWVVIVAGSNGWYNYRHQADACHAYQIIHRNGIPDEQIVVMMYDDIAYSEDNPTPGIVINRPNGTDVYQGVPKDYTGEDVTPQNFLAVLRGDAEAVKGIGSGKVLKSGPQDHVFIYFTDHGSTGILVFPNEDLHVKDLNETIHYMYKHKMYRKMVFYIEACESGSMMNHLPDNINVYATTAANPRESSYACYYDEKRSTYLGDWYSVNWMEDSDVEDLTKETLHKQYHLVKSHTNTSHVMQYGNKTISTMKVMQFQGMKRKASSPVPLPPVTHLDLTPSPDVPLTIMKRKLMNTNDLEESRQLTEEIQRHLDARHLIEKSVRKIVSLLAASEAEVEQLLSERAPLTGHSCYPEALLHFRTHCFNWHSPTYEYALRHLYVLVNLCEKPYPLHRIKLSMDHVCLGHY
Experimental: as §1
as §2, with “The fluorogenic substrates used for cathepsin S and legumain were Z-VVR-AMC and Z-AAN-AMC (Bachem, Bubendorf, Switzerland), respectively. The inhibitors used for cathepsin S and legumain were Z-FL-COCHO (Sigma-Aldrich, CA, USA) and Ac-YVAD-CMK (Bachem), respectively^11.” left out

papain = target: T4, papain (Carica papaya, UniProt P00784); assay: Enzymatic activity assay, fluorogenic substrate Z-FR-AMC; format: biochemical; conditions: PPE1 5 µmol/L, 15 min (Figure 4A)
T4 construct: purchased Merck
T4 sequence (P00784 134-345): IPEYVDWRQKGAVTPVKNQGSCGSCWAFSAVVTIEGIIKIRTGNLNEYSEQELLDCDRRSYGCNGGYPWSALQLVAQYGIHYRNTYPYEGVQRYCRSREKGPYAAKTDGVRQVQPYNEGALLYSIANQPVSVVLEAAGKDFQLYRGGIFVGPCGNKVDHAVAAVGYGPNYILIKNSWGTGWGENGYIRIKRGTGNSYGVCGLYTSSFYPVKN
Experimental: as §1

[1] = target: T5, recombinant rat cathepsin B (Rattus norvegicus, UniProt P00787); assay: as above; format: biochemical; conditions: PPE1 5 µmol/L, 15 min (Figure 4A)
T5 construct: gift of Dr Lukas Mach
Experimental: as §1

LPS‐stimulated human DCs = test system: LPS‐stimulated human DCs; design: method as in PMID 19454659, PMID 17451798; conditions: cited from earlier work

T2 sequence (P25774 115-331): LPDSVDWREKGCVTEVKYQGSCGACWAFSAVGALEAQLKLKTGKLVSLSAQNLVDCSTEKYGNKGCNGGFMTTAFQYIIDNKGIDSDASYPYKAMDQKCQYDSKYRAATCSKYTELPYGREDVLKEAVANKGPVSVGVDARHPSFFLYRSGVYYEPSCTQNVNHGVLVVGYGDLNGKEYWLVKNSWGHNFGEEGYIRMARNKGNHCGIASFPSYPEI
T5 sequence (P00787 80-339): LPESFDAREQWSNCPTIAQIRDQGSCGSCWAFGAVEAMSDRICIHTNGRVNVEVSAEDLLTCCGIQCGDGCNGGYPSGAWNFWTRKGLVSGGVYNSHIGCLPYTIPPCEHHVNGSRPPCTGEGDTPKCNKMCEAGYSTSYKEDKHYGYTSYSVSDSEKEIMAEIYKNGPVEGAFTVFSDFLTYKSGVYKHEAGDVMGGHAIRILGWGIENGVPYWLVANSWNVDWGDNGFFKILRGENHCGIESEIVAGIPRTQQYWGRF

CCC1C(=O)CC(O)C1/C=C/C(O)CCCCCCCC(=O)O (stereo not drawn) [PPE1, E1 phytoprostanes]
NMR (binding confirmation, K d) (Bet_v_1; 15N-labeled Bet v 1, direct measurement of Kd prevented by intermediate exchange): low to sub‐µmol/L | specific binding to Bet v 1 (1H-15N HSQC spectra) (Bet_v_1; absence vs presence of compound): specifically binds | cathepsin S fluorogenic activity (cathepsin S; 10 nmol/L protease, 100 µmol/L ligand, 50 µmol/L substrate, pH 5.0, 2 mmol/L DTT (Figure 3A)): specifically inhibited | cathepsin S fluorogenic activity (cathepsin S; PPE1 5 µmol/L, 15 min (Figure 4A)): inhibits | cathepsin S activity in the presence of TCEP (cathepsin S; PPE1 5 µmol/L, 0.5 mmol/L TCEP instead of DTT (Figure 4D)): completely abolished | legumain activity in the presence of DTT and TCEP (legumain): no inhibitory effect | papain fluorogenic activity (papain): inhibits | rat cathepsin B fluorogenic activity [1]: inhibits | production of IL‐12p70 (LPS‐stimulated human DCs): inhibits the production of IL‐12p70
